Experiments:
Format in all cases: in vivo
[1] = tested on: Italian ryegrass (Lolium multiflorum); assay: Test C pre-/postemergence greenhouse test, plant response rating 0-100; conditions: Postemergence; for Plant response rating, Ryegrass, Italian: scale 0 to 100
Method in brief: (§1)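 Plants were scored visually against controls 13–15 days after treatment on a 0–100 scale, 100 meaning complete control. Test chemicals, formulated in surfactant-containing non-phytotoxic solvent, went preemergence onto seeds in loam–sand blend or postemergence onto 1- to 4-leaf plants (2–18 cm) grown in peat-based mix.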

[2] = tested on: blackgrass (Alopecurus myosuroides); assay: as above; conditions: Postemergence; for Plant response rating, Blackgrass: scale 0 to 100
Method in brief: as §1

corn (Zea mays) = assay: as above; conditions: Postemergence; for Plant response rating, Corn: scale 0 to 100
Method in brief: as §1

[3] = tested on: galium (catchweed bedstraw, Galium aparine); assay: as above; conditions: Postemergence; for Plant response rating, Galium: scale 0 to 100
Method in brief: as §1

[4] = tested on: lambsquarters (Chenopodium album); assay: as above; conditions: Postemergence; for Plant response rating, Lambsquarters: scale 0 to 100
Method in brief: as §1

[5] = tested on: large (Lg) crabgrass (Digitaria sanguinalis); assay: as above; conditions: Postemergence; for Plant response rating, Crabgrass, Large: scale 0 to 100
Method in brief: as §1

[6] = tested on: morningglory (Ipomoea coccinea); assay: as above; conditions: Postemergence; for Plant response rating, Morningglory: scale 0 to 100
Method in brief: as §1

[7] = tested on: pigweed (Amaranthus retroflexus); assay: as above; conditions: Postemergence; for Plant response rating, Pigweed: scale 0 to 100
Method in brief: as §1

[8] = tested on: ragweed (common ragweed, Ambrosia elatior); assay: as above; conditions: Postemergence; for Plant response rating, Ragweed: scale 0 to 100
Method in brief: as §1

soybean (Glycine max) = assay: as above; conditions: Postemergence; for Plant response rating, Soybean: scale 0 to 100
Method in brief: as §1

[9] = tested on: velvetleaf (Abutilon theophrasti); assay: as above; conditions: Postemergence; for Plant response rating, Velvetleaf: scale 0 to 100
Method in brief: as §1

[10] = tested on: yellow nutsedge (Cyperus esculentus); assay: as above; conditions: Postemergence; for Plant response rating, Nutsedge, Yellow: scale 0 to 100
Method in brief: as §1

[11] = tested on: bermudagrass (Cynodon dactylon); assay: Test C postemergence greenhouse test, plant response rating 0-100; conditions: for Plant response rating, Bermudagrass: scale 0 to 100
Method in brief: (§2)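 Plants rated visually 0 (no effect) to 100 (complete control) against untreated controls after 13 to 15 days in the greenhouse, dash indicating no result. Treatment was a postemergence application of formulated chemicals at the 1- to 4-leaf stage (2 to 18 cm), in pots of peat-vermiculite medium.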

[12] = tested on: goosegrass (Eleusine indica); assay: as above; conditions: for Plant response rating, Goosegrass: scale 0 to 100
Method in brief: as §2

Cn1cc(C(=NN2CCCC2)c2ccccc2)c(-c2cc(Cl)c(Cl)c(Cl)c2)n1 [Compound 25]
80: Plant response rating (0 to 100), Pigweed ([7]; 62 g ai/ha)
98: Plant response rating (0 to 100), Pigweed ([7]; 125 g ai/ha)
20: Plant response rating, Lambsquarters ([4]; 250 g ai/ha)
55: Plant response rating (0 to 100), Velvetleaf ([9]; 62 g ai/ha)
0: Plant response rating (0 to 100), Ryegrass, Italian ([1]; 62 g ai/ha) | Plant response rating (0 to 100), Ryegrass, Italian ([1]; 125 g ai/ha) | Plant response rating (0 to 100), Blackgrass ([2]; 31 g ai/ha) | Plant response rating (0 to 100), Blackgrass ([2]; 62 g ai/ha) | Plant response rating, Blackgrass ([2]; 125 g ai/ha) | Plant response rating (0 to 100), Corn (corn (Zea mays); 31 g ai/ha) | Plant response rating (0 to 100), Corn (corn (Zea mays); 62 g ai/ha) | Plant response rating (0 to 100), Corn (corn (Zea mays); 125 g ai/ha) | Plant response rating, Corn (corn (Zea mays); 250 g ai/ha) | Plant response rating (0 to 100), Galium ([3]; 31 g ai/ha) | Plant response rating (0 to 100), Galium ([3]; 62 g ai/ha) | Plant response rating (0 to 100), Galium ([3]; 125 g ai/ha) | Plant response rating, Galium ([3]; 250 g ai/ha) | Plant response rating (0 to 100), Lambsquarters ([4]; 62 g ai/ha) | Plant response rating (0 to 100), Lambsquarters ([4]; 125 g ai/ha) | Plant response rating (0 to 100), Crabgrass, Large ([5]; 31 g ai/ha) | Plant response rating (0 to 100), Crabgrass, Large ([5]; 62 g ai/ha) | Plant response rating (0 to 100), Crabgrass, Large ([5]; 125 g ai/ha) | Plant response rating, Crabgrass, Large ([5]; 250 g ai/ha) | Plant response rating (0 to 100), Morningglory ([6]; 62 g ai/ha) | Plant response rating (0 to 100), Morningglory ([6]; 125 g ai/ha) | Plant response rating, Morningglory ([6]; 250 g ai/ha) | Plant response rating (0 to 100), Ragweed ([8]; 62 g ai/ha) | Plant response rating (0 to 100), Ragweed ([8]; 125 g ai/ha) | Plant response rating, Ragweed ([8]; 250 g ai/ha) | Plant response rating (0 to 100), Soybean (soybean (Glycine max); 62 g ai/ha) | Plant response rating (0 to 100), Soybean (soybean (Glycine max); 125 g ai/ha) | Plant response rating (0 to 100), Nutsedge, Yellow ([10]; 62 g ai/ha) | Plant response rating (0 to 100), Nutsedge, Yellow ([10]; 125 g ai/ha) | Plant response rating, Nutsedge, Yellow ([10]; 250 g ai/ha) | Plant response rating (0 to 100), Bermudagrass ([11]; 31 g ai/ha) | Plant response rating (0 to 100), Bermudagrass ([11]; 62 g ai/ha) | Plant response rating, Bermudagrass ([11]; 125 g ai/ha) | Plant response rating, Bermudagrass ([11]; 250 g ai/ha) | Plant response rating (0 to 100), Goosegrass ([12]; 31 g ai/ha) | Plant response rating (0 to 100), Goosegrass ([12]; 62 g ai/ha) | Plant response rating (0 to 100), Goosegrass ([12]; 125 g ai/ha) | Plant response rating, Goosegrass ([12]; 250 g ai/ha)
70: Plant response rating, Velvetleaf ([9]; 250 g ai/ha)
65: Plant response rating (0 to 100), Velvetleaf ([9]; 125 g ai/ha)
100: Plant response rating, Pigweed ([7]; 250 g ai/ha)
5: Plant response rating, Ryegrass, Italian ([1]; 250 g ai/ha) | Plant response rating, Blackgrass ([2]; 250 g ai/ha)
10: Plant response rating, Soybean (soybean (Glycine max); 250 g ai/ha)

Fc1ccc(NN=C(c2ccccc2)c2c[nH]nc2-c2cc(Cl)cc(Cl)c2)cc1 [Compound 35]
0: Plant response rating (0 to 100), Ryegrass, Italian ([1]; 62 g ai/ha) | Plant response rating (0 to 100), Ryegrass, Italian ([1]; 125 g ai/ha) | Plant response rating, Ryegrass, Italian ([1]; 250 g ai/ha) | Plant response rating, Ryegrass, Italian ([1]; 500 g ai/ha) | Plant response rating (0 to 100), Blackgrass ([2]; 62 g ai/ha) | Plant response rating (0 to 100), Blackgrass ([2]; 125 g ai/ha) | Plant response rating, Blackgrass ([2]; 250 g ai/ha) | Plant response rating, Blackgrass ([2]; 500 g ai/ha) | Plant response rating (0 to 100), Corn (corn (Zea mays); 62 g ai/ha) | Plant response rating (0 to 100), Corn (corn (Zea mays); 125 g ai/ha) | Plant response rating (0 to 100), Galium ([3]; 62 g ai/ha) | Plant response rating (0 to 100), Galium ([3]; 125 g ai/ha) | Plant response rating, Galium ([3]; 250 g ai/ha) | Plant response rating (0 to 100), Morningglory ([6]; 62 g ai/ha) | Plant response rating (0 to 100), Morningglory ([6]; 125 g ai/ha) | Plant response rating (0 to 100), Nutsedge, Yellow ([10]; 62 g ai/ha) | Plant response rating (0 to 100), Bermudagrass ([11]; 62 g ai/ha) | Plant response rating (0 to 100), Bermudagrass ([11]; 125 g ai/ha) | Plant response rating, Bermudagrass ([11]; 250 g ai/ha) | Plant response rating, Bermudagrass ([11]; 500 g ai/ha) | Plant response rating (0 to 100), Goosegrass ([12]; 62 g ai/ha) | Plant response rating (0 to 100), Goosegrass ([12]; 125 g ai/ha) | Plant response rating, Goosegrass ([12]; 250 g ai/ha) | Plant response rating, Goosegrass ([12]; 500 g ai/ha)
70: Plant response rating, Velvetleaf ([9]; 250 g ai/ha) | Plant response rating, Velvetleaf ([9]; 500 g ai/ha)
85: Plant response rating (0 to 100), Pigweed ([7]; 62 g ai/ha)
55: Plant response rating, Ragweed ([8]; 500 g ai/ha)
10: Plant response rating (0 to 100), Soybean (soybean (Glycine max); 62 g ai/ha) | Plant response rating (0 to 100), Soybean (soybean (Glycine max); 125 g ai/ha) | Plant response rating, Soybean (soybean (Glycine max); 250 g ai/ha) | Plant response rating, Soybean (soybean (Glycine max); 500 g ai/ha)
65: Plant response rating (0 to 100), Velvetleaf ([9]; 125 g ai/ha)
98: Plant response rating (0 to 100), Lambsquarters ([4]; 62 g ai/ha) | Plant response rating (0 to 100), Lambsquarters ([4]; 125 g ai/ha)
15: Plant response rating (0 to 100), Ragweed ([8]; 62 g ai/ha)
50: Plant response rating, Ragweed ([8]; 250 g ai/ha)
100: Plant response rating, Lambsquarters ([4]; 250 g ai/ha) | Plant response rating, Lambsquarters ([4]; 500 g ai/ha) | Plant response rating (0 to 100), Pigweed ([7]; 125 g ai/ha) | Plant response rating, Pigweed ([7]; 250 g ai/ha) | Plant response rating, Pigweed ([7]; 500 g ai/ha)
40: Plant response rating (0 to 100), Ragweed ([8]; 125 g ai/ha)
5: Plant response rating, Corn (corn (Zea mays); 250 g ai/ha) | Plant response rating, Corn (corn (Zea mays); 500 g ai/ha) | Plant response rating, Galium ([3]; 500 g ai/ha) | Plant response rating (0 to 100), Crabgrass, Large ([5]; 62 g ai/ha) | Plant response rating (0 to 100), Crabgrass, Large ([5]; 125 g ai/ha) | Plant response rating, Crabgrass, Large ([5]; 250 g ai/ha) | Plant response rating, Crabgrass, Large ([5]; 500 g ai/ha) | Plant response rating, Morningglory ([6]; 250 g ai/ha) | Plant response rating, Morningglory ([6]; 500 g ai/ha) | Plant response rating (0 to 100), Nutsedge, Yellow ([10]; 125 g ai/ha) | Plant response rating, Nutsedge, Yellow ([10]; 250 g ai/ha) | Plant response rating, Nutsedge, Yellow ([10]; 500 g ai/ha)
60: Plant response rating (0 to 100), Velvetleaf ([9]; 62 g ai/ha)
